Assay: Visual observation of solubility in organic solvent with and without CO2 pressure (windowed vessel)
Assay type: physicochemical
Details: 35° C.; for solubility in cyclohexane / solubility in CO2-expanded cyclohexane: 64 mg in 5 mL cyclohexane; for solubility in cyclohexane: 1 atm CO2, visual; for solubility in CO2-expanded cyclohexane: CO2 pressure 59 bar
Procedure: The bis(methanol) adduct of complex 2 (Rh2(O2C(CF2)9F)4(MeOH)2, 64 mg) was placed in a windowed vessel along with a stir bar and 5 mL of cyclohexane, all at 35° C. […] The CO2 under these conditions is not supercritical and in the absence of the cyclohexane would not be liquid. […] When the CO2 pressure was released (slowly, so that the solvent was not lost by entrainment), then the liquid phase returned to its original volume and colour and the complex precipitated. The IR spectrum of the solid was identical to that of the original Rh2(O2C(CF2)9F)4(MeOH)2.
The IR spectrum of the complex after precipitation is identical to that of the starting material. […] For example, complex 3 was insoluble in toluene at 26° C., dissolved in CO2-expanded toluene at 54 bar CO2 and was subsequently precipitated after CO2 release.

[1] = listed as Rh2(O2C(CF2)9F)4(MeOH)2

CO.CO.O=C([O-])C(F)(F)C(F)(F)C(F)(F)C(F)(F)C(F)(F)C(F)(F)C(F)(F)C(F)(F)C(F)(F)F.O=C([O-])C(F)(F)C(F)(F)C(F)(F)C(F)(F)C(F)(F)C(F)(F)C(F)(F)C(F)(F)C(F)(F)F.O=C([O-])C(F)(F)C(F)(F)C(F)(F)C(F)(F)C(F)(F)C(F)(F)C(F)(F)C(F)(F)C(F)(F)F.O=C([O-])C(F)(F)C(F)(F)C(F)(F)C(F)(F)C(F)(F)C(F)(F)C(F)(F)C(F)(F)C(F)(F)F.[Rh+3].[Rh+3] [bis(methanol) adduct of complex 2, Rh2(O2C(CF2)9F)4(MeOH)2]
solubility in cyclohexane: completely insoluble | solubility in cyclohexane [1]: insoluble | solubility in CO2-expanded cyclohexane: complete dissolution | solubility in CO2-expanded cyclohexane [1]: dissolves readily | solubility in gaseous CO2 (upper phase) (59 bar CO2, upper gaseous phase showed no discoloration): no solubility
